Experimental data reported in the NIST ThermoML archive (doi:10.1016/j.jct.2015.07.025).
Values joined by “and” are separate entries in the source; they are usually repeats but may differ in a detail not shown here. Equal entries are not always repeated.

Assays:
[1] = for Normal melting temperature: Crystal, DTA; for vapor or sublimation pressure: Liquid, Transpiration method
[2] = Molar enthalpy of transition or fusion; settings: Crystal; DSC

Cc1cc(C)c(C#N)c(C)c1 [2,4,6-trimethylbenzonitrile]
Settings	Molar enthalpy of transition or fusion [kcal/mol]	Normal melting temperature [°C]
[1]	–	52.4
[2]	3.7	–

Cc1ccccc1C#N [2-methylbenzonitrile]
[1]
Settings	vapor or sublimation pressure
287.4 K	0.02064 kPa
289.2 K	0.02389 kPa
290.3 K	0.02582 kPa
292.4 K	0.03043 kPa
296.3 K	0.04075 kPa
298.1 K	0.0467 kPa
300.7 K	0.05531 kPa
305.1 K	0.07684 kPa
308.2 K	0.0961 kPa
311 K	0.1162 kPa
312 K	0.1257 kPa and 0.1248 kPa
314.9 K	0.1494 kPa
316.1 K	0.1625 kPa
318.1 K	0.1865 kPa
321.1 K	0.2216 kPa
322.2 K	0.2425 kPa
324.2 K	0.2729 kPa

Cc1cccc(C#N)c1 [3-cyanotoluene]
[1]
Settings	vapor or sublimation pressure [kPa]
279.8 K	0.0072
281.3 K	0.00829
283.7 K	0.01033
285.7 K	0.01206
288.3 K	0.01513
290.3 K	0.01801
292.4 K	0.02154
294.3 K	0.02516
297.2 K	0.03103
300 K	0.03937
302.1 K	0.04606
304.1 K	0.05317
307.7 K	0.06905
309.2 K	0.0755
310.1 K	0.08291
312 K	0.09159
313.7 K	0.1049

Cc1ccc(C#N)cc1 [4-cyanotoluene]
[1]
Settings	vapor or sublimation pressure
302.1 K	0.03154 kPa
303.2 K	0.03377 kPa
305.3 K	0.04002 kPa
309.1 K	0.05079 kPa
311 K	0.06008 kPa
313.1 K	0.06747 kPa
315 K	0.07922 kPa
319.1 K	0.09993 kPa
320.9 K	0.1159 kPa
322.9 K	0.1303 kPa
325 K	0.1463 kPa and 0.1458 kPa
329 K	0.1856 kPa
331 K	0.2118 kPa
332.8 K	0.2374 kPa
334.9 K	0.2629 kPa

Settings	Molar enthalpy of transition or fusion [kcal/mol]	Normal melting temperature [°C]
[1]	–	26.2
[2]	3.85	–
